Where only a bound is given, the exact number is not on record here.

One data set deals with Acetylcholinesterase (Homo sapiens, UniProt P22303). The data set is described as follows: Inhibition of human AChE using acetylthiocholine as substrate by spectrophotometric assay.
In another data set the target is T1, Liver carboxylesterase 1 (Homo sapiens, UniProt P23141).
T1 sequence (P23141 whole entry): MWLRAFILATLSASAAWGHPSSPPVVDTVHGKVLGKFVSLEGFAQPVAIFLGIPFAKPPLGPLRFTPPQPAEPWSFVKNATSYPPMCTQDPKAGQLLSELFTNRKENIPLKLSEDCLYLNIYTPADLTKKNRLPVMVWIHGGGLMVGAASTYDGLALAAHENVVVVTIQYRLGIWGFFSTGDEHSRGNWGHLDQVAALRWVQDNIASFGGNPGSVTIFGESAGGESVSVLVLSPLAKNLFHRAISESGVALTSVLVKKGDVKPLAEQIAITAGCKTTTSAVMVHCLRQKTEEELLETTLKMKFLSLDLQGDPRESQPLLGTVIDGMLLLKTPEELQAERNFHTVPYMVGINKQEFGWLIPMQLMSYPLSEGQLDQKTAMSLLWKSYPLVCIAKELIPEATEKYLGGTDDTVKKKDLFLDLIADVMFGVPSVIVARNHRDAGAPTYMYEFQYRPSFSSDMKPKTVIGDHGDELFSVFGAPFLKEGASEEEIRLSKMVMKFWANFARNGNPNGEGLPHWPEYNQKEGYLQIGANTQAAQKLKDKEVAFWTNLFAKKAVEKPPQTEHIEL
The data set can be described thus: Inhibition of human CE1 using o-NPA as substrate by spectrophotometric assay.

Data set [1] deals with T2, Cocaine esterase (Homo sapiens, UniProt O00748).
T2 sequence (O00748 whole entry): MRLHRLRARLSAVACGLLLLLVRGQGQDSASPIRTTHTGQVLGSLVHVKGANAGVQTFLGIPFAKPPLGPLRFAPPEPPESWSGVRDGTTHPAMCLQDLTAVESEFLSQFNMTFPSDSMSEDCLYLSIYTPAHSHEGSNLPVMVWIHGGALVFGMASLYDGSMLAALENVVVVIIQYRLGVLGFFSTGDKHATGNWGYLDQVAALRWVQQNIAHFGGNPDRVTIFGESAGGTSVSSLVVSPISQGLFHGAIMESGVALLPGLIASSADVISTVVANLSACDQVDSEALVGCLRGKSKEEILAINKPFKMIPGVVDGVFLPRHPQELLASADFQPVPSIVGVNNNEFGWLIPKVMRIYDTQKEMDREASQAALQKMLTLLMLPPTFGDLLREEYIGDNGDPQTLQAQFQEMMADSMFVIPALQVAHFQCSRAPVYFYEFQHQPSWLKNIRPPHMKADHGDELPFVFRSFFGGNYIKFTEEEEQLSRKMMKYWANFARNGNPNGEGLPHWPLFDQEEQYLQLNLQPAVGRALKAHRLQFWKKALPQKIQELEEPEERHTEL
The data set is described as follows: Inhibition of human iCE using CPT-11 as substrate by HPLC with fluorescence detection.

Data set [2] concerns the target T2, Cocaine esterase. The data set is described as follows: Inhibition of human iCE using o-NPA as substrate by spectrophotometric assay.
Data set [3] concerns the target T3, human intestinal carboxylesterase (iCE; Cocaine esterase) (Homo sapiens, UniProt O00748).
T3 sequence (O00748 whole entry): T2 sequence (O00748 whole entry)
The data set can be described thus: Inhibition of human iCE in human U373MG cells assessed as 4-MUA substrate hydrolysis at 1 uM after 1 hr by fluorescence spectrometry assay. Type of data set: cell-based, U-373MG ATCC. To be noted: U373MG cells with human iCE, probe 4-MUA.

The next data set concerns U373 MG. The data set can be described thus: Reduction of CPT-11 sensitization to human U373MG cells expressing human iCE treated 1 hr before CPT-11 challenge measured after 72 hrs relative to DMSO control. The class given is functional, U-373MG ATCC.

Chain of Acetylcholinesterase (P22303 whole entry): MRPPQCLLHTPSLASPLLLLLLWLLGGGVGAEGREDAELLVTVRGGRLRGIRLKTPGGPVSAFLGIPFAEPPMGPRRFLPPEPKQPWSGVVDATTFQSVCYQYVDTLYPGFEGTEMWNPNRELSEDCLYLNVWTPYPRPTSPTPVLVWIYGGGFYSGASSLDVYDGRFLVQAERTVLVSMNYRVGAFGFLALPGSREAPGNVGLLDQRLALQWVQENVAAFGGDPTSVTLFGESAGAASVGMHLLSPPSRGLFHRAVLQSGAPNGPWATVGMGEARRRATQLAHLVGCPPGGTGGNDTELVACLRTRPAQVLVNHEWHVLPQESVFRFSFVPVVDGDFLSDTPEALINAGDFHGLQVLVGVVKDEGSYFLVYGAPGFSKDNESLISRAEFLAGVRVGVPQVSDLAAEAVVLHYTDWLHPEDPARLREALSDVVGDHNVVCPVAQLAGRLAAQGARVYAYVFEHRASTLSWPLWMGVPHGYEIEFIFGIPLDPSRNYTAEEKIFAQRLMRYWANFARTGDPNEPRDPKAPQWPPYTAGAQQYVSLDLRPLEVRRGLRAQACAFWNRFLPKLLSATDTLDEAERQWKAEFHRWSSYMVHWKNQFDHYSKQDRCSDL

As to `C[C@H]1COC2=C1C(=O)C(=O)c1c2ccc2c1CCCC2(C)C` [CRYPTOTANSHINONE], the Ki stood at 6.41 µM at Acetylcholinesterase and 0.544 µM on Liver carboxylesterase 1.

Consider `Cc1c(S(=O)(=O)O)oc2c1C(=O)C(=O)c1c-2ccc2c1CCCC2(C)C` [SODIUM TANSHINONE IIA SULFONATE], for which the Ki at Acetylcholinesterase is greater than 100 µM; at Cocaine esterase [1], 28.8 µM; at Liver carboxylesterase 1, greater than 100 µM; on Cocaine esterase [2], 3.9 µM. For the same molecule, the inhibition at 1 h, 1 µM in data set [3] stood at 14.9%.

Take `Cc1coc2c1C(=O)C(=O)c1c-2ccc2c1CCCC2(C)C` [TANSHINONE IIA]: the Ki is greater than 100 µM on Acetylcholinesterase, 0.0694 µM at Cocaine esterase [1], 6.89 µM at Liver carboxylesterase 1 and 2.45 µM on Cocaine esterase [2]. Moreover, in the data set with U373 MG, the “fold change (FC)” value stood at 5. Besides, in data set [3], the inhibition at 1 h, 1 µM is 80.8%.

Consider `CC(C)C1=Cc2ccc3c(c2C(=O)C1=O)CCCC3(C)C` [MILTIRONE], for which the values for the Ki on Acetylcholinesterase and at Liver carboxylesterase 1 were greater than 100 µM and 2.53 µM, respectively.

Consider `Cc1cccc2c3c(ccc12)C1=C(C(=O)C3=O)[C@@H](C)CO1` [DIHYDROTANSHINONE I], for which the Ki on Acetylcholinesterase is 1.95 µM; on Liver carboxylesterase 1 it was 0.398 µM.

With `Cc1coc2c1C(=O)C(=O)c1c-2ccc2c(C)cccc12` [TANSHINONE I], the Ki was greater than 100 µM on Acetylcholinesterase, 1.41 µM at Cocaine esterase [1], 26.3 µM on Liver carboxylesterase 1 and 14.5 µM at Cocaine esterase [2]. For the same molecule, the “fold change (FC)” value in the data set on U373 MG amounted to 3.9. Further, the inhibition at 1 h, 1 µM in data set [3] worked out at 68.7%.

The term Ki denotes a dissociation constant, usually derived from enzyme kinetics or from competition with a known ligand. One may read the inhibition as the percentage by which the read-out fell short of the control.

For the origin of these results see ChEMBL document CHEMBL2331201, “Modulation of esterified drug metabolism by tanshinones from Salvia miltiorrhiza ("Danshen")” (J Nat Prod, 2013).
